Assay results from patent US8957114B2, “Formulations, salts and polymorphs of transnorsertraline and uses thereof” (Sunovion Pharmaceuticals Inc., priority 2009, dated 2015).
Read-outs that look alike come from different tables or passages of the source.

Tests used:
[1] = VTI moisture sorption isotherm (hygroscopicity); type: physicochemical; settings: 25° C.
Procedure: (§1) Each salt was analyzed by coulometric titration using an EM Scientific Aquastar C3000 titrator to determine water content. […] Each salt was analyzed using a Perkin Elmer TGA 7 Thermal Gravimetric Analyzer (TGA). […] Moisture sorption isotherms for each salt were generated using the VTI SGA-100 Symmetric Vapor Sorption Analyzer. Samples were run as received without pre-analysis drying. Equilibrium criteria were the lesser of 0.01 wt % change in 5 minutes or 180 minutes at each relative humidity (RH) step. […] Analysis was repeated for each sample in consecutive analyses (sample was not removed from analyzer). Sample sizes ranged from 18 mg to 35 mg.

[2] = Moisture content by coulometric Karl Fischer titration (KF); type: physicochemical
Procedure: as §1

[3] = Thermal gravimetric analysis (TGA) weight loss; type: physicochemical; settings: heated 25° C. to 325° C. at 10° C./min
Procedure: The sixteen salts of transnorsertraline of Example 6.14 were analyzed for moisture content and hygroscopicity. Each salt was analyzed by coulometric titration using an EM Scientific Aquastar C3000 titrator to determine water content. Sample size ranged from 18 mg to 134 mg. Each salt was analyzed using a Perkin Elmer TGA 7 Thermal Gravimetric Analyzer (TGA). […] Moisture sorption isotherms for each salt were generated using the VTI SGA-100 Symmetric Vapor Sorption Analyzer. Samples were run as received without pre-analysis drying. Equilibrium criteria were the lesser of 0.01 wt % change in 5 minutes or 180 minutes at each relative humidity (RH) step. Temperature was fixed at 25° C. and the relative humidity steps (25 to 95% to 25%) were in 5% increments. Analysis was repeated for each sample in consecutive analyses (sample was not removed from analyzer). Sample sizes ranged from 18 mg to 35 mg.

[4] = Solubility of transnorsertraline salts in de-ionized water (HPLC); settings: for Solubility in Freebase Equivalents mgA/mL: de-ionized water, ambient, shaken up to nine days until equilibrium; for pH: saturated solution in de-ionized water
Procedure: For each salt, saturated solutions with excess solids in deionized water were prepared in 20 mL clear glass scintillation vials with screw caps. All samples were shaken at 300 rpm at ambient conditions for up to nine days until equilibrium was achieved. Solubility was determined using a HPLC method (Table 5).

[5] = Solubility of transnorsertraline salts in aqueous buffer systems (SGF, acetate buffer pH 4.5, SIF; HPLC); type: physicochemical
Procedure: Saturated solutions with excess solids were prepared in 20 mL clear glass scintillation vials. Simulated gastric fluid (pH 1.0, ˜0.1N HCl, 0.03M NaCl, no enzymes), simulated intestinal fluid (pH 6.8, 0.05M KH2PO4, ˜0.02N NaOH, no enzymes), and acetate buffer (pH 4.5, 0.02M sodium acetate, 0.03M acetic acid) were prepared in accordance with USP28 (USP28 Test Solutions p2855, Volumetric Solutions p2863). […] Solubility was determined using a HPLC method.

[6] = Open dish excipient compatibility study Set 1a/1b (Active 1 with single excipients), 40° C./75% RH, 3 weeks, % impurities; type: physicochemical
Procedure: A Zorban SB-CN […], 25 cm×4.6 mm analytical column using a 0.05% trifluoroacetic acid in a 80:20 water:acetonitrile solution (Mobile Phase A) followed by a 0.05% trifluoroacetic acid in a 15:85 water:acetonitrile solution (Mobile Phase B) was used. Column temperature: 30° C. The flow rate: 1.0 mL/min. Injection volume: 50 μL. Wavelength: 220 nm. Minimum run time: 50 min (15 min delay). Mobile Phase gradient: […]
Transnorsertraline HCl (1) (“Active 1”) was mixed with each excipient present in 1 mg capsule strength respectively. The samples contained two different ratios (1:1 and as in the 1 mg capsules) of active and excipients.

[7] = repeated consecutive analysis (second line)
[8] = 0.05M Acetate Buffer (pH 4.5), ambient, up to nine days
[9] = Simulated Gastric Fluid (no enzymes), ambient, up to nine days
[10] = Simulated Intestinal Fluid (pH 6.8, no enzymes), ambient, up to nine days
[11] = saturated solution in 0.05M Acetate Buffer (pH 4.5)
[12] = saturated solution in Simulated Gastric Fluid
[13] = saturated solution in Simulated Intestinal Fluid
[14] = first analysis, listed as Acetate lot 1
[15] = first analysis, listed as Acetate lot 2
[16] = first analysis, listed as Acetate lot 3
[17] = repeated consecutive analysis (second line), listed as Acetate lot 1
[18] = repeated consecutive analysis (second line), listed as Acetate lot 2
[19] = repeated consecutive analysis (second line), listed as Acetate lot 3
[20] = Set 1a, active:excipient 1:1, open dish 40° C./75% RH
[21] = Set 1b, active:excipient ratio as in 1 mg capsules, open dish 40° C./75% RH

Row | Compound | VTI Adsorp. (% wt gain 25 to 95% RH) ([1]; first analysis) [% wt gain] | Initial KF (% H2O) [2] [% H2O] | VTI Desorp. (% wt loss 95 to 25% RH) ([1]; first analysis) [% wt loss] | VTI Adsorp. (% wt gain 25 to 95% RH) [1, 7] [% wt gain] | TGA (% wt loss) [3] [% wt loss] | VTI Desorp. (% wt loss 95 to 25% RH) [1, 7] [% wt loss] | pH [4] | pH [5, 11] | pH [5, 12] | pH [5, 13] | other results
1 | N[C@@H]1CC[C@@H](c2ccc(Cl)c(Cl)c2)c2ccccc21.O=C1CC[C@@H](C(=O)O)N1 | 17.28 | 0.10 | – | – | – | – | – | – | – | – | –
2 | O=S(=O)(O)O [Sulfate] | 10.19 | 3.34 | 9.51 | 7.25 | 4.20 | – | – | – | – | – | –
3 | Benzoate | 0.10 | 0.27 | 0.10 | 0.08 | 0.05 | 0.07 | – | – | – | – | –
4 | Citrate | 2.59 | 0.31 | 3.96 | 3.24 | – | 3.61 | – | – | – | – | –
5 | Fumarate | 0.18 | 0.40 | 0.17 | 0.17 | 0.81 | 0.16 | 5.30 | 4.60 | 1.25 | 6.63 | Solubility in Freebase Equivalents mgA/mL [4]: 0.52 mgA/mL; Solubility in Freebase Equivalents mgA/mL [5, 8]: 0.69 mgA/mL; Solubility in Freebase Equivalents mgA/mL [5, 9]: <0.01 mgA/mL; Solubility in Freebase Equivalents mgA/mL [5, 10]: 0.30 mgA/mL
6 | L-tartrate | 3.52 | 0.62 | 1.36 | 1.37 | – | – | 2.63 | 4.58 | 1.24 | 6.73 | –
7 | Maleate | 0.10 | 0.06 | 0.09 | 0.08 | 0.02 | 0.08 | 3.98 | 4.52 | 1.25 | 6.47 | Solubility in Freebase Equivalents mgA/mL [4]: 1.88 mgA/mL; Solubility in Freebase Equivalents mgA/mL [5, 8]: 1.23 mgA/mL; Solubility in Freebase Equivalents mgA/mL [5, 9]: 0.08 mgA/mL; Solubility in Freebase Equivalents mgA/mL [5, 10]: 0.28 mgA/mL
8 | Phosphate | 3.00 | 0.16 | 1.37 | 2.14 | – | 1.20 | 3.27 | 4.55 | 1.24 | 6.49 | Solubility in Freebase Equivalents mgA/mL ([5]; pH 1): <0.01 mgA/mL; Solubility in Freebase Equivalents mgA/mL ([5]; pH 4.5): 2.63 mgA/mL; Solubility in Freebase Equivalents mgA/mL ([5]; pH 6.8): 0.27 mgA/mL
9 | S-mandelate | 3.24 | 0.32 | 3.95 | 3.79 | – | 3.02 | – | – | – | – | –
10 | Succinate | 3.25 | 1.03 | 3.17 | – | – | – | 3.89 | 4.50 | 1.27 | 6.46 | –
11 | Tosylate | 0.06 | 0.09 | 0.06 | – | 0.16 | – | 6.16 | 4.56 | 1.10 | 6.78 | Solubility in Freebase Equivalents mgA/mL [4]: 0.53 mgA/mL; Solubility in Freebase Equivalents mgA/mL [5, 8]: 0.63 mgA/mL; Solubility in Freebase Equivalents mgA/mL [5, 9]: 0.06 mgA/mL; Solubility in Freebase Equivalents mgA/mL [5, 10]: 0.21 mgA/mL
12 | Transnorsertraline Acetate | 0.07 | 0.03 | 0.08 | 0.08 | 0.53 | 0.09 | 6.31 | 4.79 | 1.26 | 6.63 | VTI Adsorp. (% wt gain 25 to 95% RH) [1, 14]: 0.07 % wt gain; VTI Desorp. (% wt loss 95 to 25% RH) [1, 14]: 0.08 % wt loss; VTI Adsorp. (% wt gain 25 to 95% RH) [1, 15]: 0.22 % wt gain; VTI Desorp. (% wt loss 95 to 25% RH) [1, 15]: 0.23 % wt loss; VTI Adsorp. (% wt gain 25 to 95% RH) [1, 16]: 0.33 % wt gain; VTI Desorp. (% wt loss 95 to 25% RH) [1, 16]: 0.38 % wt loss; VTI Adsorp. (% wt gain 25 to 95% RH) [1, 17]: 0.08 % wt gain; VTI Desorp. (% wt loss 95 to 25% RH) [1, 17]: 0.09 % wt loss; VTI Adsorp. (% wt gain 25 to 95% RH) [1, 18]: 0.23 % wt gain; VTI Desorp. (% wt loss 95 to 25% RH) [1, 18]: 0.23 % wt loss; VTI Adsorp. (% wt gain 25 to 95% RH) [1, 19]: 0.35 % wt gain; VTI Desorp. (% wt loss 95 to 25% RH) [1, 19]: 0.35 % wt loss; Solubility in Freebase Equivalents mgA/mL ([5]; pH 1): 0.07 mgA/mL; Solubility in Freebase Equivalents mgA/mL ([5]; pH 4.5): 3.12 mgA/mL; Solubility in Freebase Equivalents mgA/mL ([5]; pH 6.8): 0.25 mgA/mL; TGA (% wt loss) ([3]; listed as Acetate lot 1): 0.43 % wt loss; Initial KF (% H2O) ([2]; listed as Acetate lot 1): 0.03 % H2O; Initial KF (% H2O) ([2]; listed as Acetate lot 2): 0.07 % H2O; Initial KF (% H2O) ([2]; listed as Acetate lot 3): 0.05 % H2O
13 | Transnorsertraline HCl [active 1] | – | – | – | – | – | – | – | – | – | – | % Active [6, 20]: 99.68%; % Impurities, peak RRT 0.764 [6, 20]: 0.05%; % Impurities, peak RRT 0.862, Synthetic Impurity 1 [6, 20]: 0.04%; % Impurities, peak RRT 0.885, Synthetic Impurity 2 [6, 20]: 0.05%; % Impurities, peak RRT 1.07, cis-diastereomer [6, 20]: 0.12%; % Impurities, peak RRT 1.386 [6, 20]: 0.07%; % Total Impurities [6, 20]: 0.33%; impurities formed due to the presence of excipients ([6]; Set 1a, ratio of active to excipient 1:1, 40° C./75% RH): no appreciable impurities formed; % Active [6, 21]: 99.68%; % Impurities, peak RRT 0.764 [6, 21]: 0.05%; % Impurities, peak RRT 0.862, Synthetic Impurity 1 [6, 21]: 0.04%; % Impurities, peak RRT 0.885, Synthetic Impurity 2 [6, 21]: 0.05%; % Impurities, peak RRT 1.07, cis-diastereomer [6, 21]: 0.12%; % Impurities, peak RRT 1.386 [6, 21]: 0.07%; % Total Impurities [6, 21]: 0.33%
